Target: T1, ER (Homo sapiens, UniProt P03372)
T1 construct: host or cells: T47D and MCF7 human breast cancer cells
T1 sequence (P03372 1-595): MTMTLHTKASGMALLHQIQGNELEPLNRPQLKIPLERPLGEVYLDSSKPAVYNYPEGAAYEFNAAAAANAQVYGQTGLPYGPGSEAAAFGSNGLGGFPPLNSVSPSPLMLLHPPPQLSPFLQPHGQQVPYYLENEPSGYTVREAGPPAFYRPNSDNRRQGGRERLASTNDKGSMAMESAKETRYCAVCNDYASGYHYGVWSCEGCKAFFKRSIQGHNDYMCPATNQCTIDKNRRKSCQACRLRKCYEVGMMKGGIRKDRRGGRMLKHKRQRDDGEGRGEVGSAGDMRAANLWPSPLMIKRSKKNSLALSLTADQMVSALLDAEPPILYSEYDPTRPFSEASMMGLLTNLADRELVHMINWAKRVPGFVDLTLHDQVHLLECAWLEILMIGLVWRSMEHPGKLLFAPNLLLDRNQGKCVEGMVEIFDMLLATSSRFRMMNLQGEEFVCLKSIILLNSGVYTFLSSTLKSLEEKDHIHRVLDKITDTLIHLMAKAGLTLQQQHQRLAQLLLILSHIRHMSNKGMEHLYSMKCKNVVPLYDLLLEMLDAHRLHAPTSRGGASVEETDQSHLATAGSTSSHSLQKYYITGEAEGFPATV
Test: ER degradation activity, in-cell western blot analysis in T47D cells
Type: cell-based
Settings: 16 hours, Table A does not say which cell line (T47D or MCF7), read-out: Potency (DC50)
In short: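 In-cell western, T47D; compounds 16 h, 0.5% DMSO final; anti-rabbit-680/anti-mouse-800 secondaries, 1 h RT, dark; read on CLX imager. ER % vs untreated/DMSO wells (100%).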

Row | SMILES | DC50
1 | O=C1CCC(N2C(=O)c3cc4c(cc3C2=O)CN(C2CCC(CNC3CN(c5ccc([C@@H]6c7ccc(O)cc7CC[C@@H]6c6ccccc6)cc5)C3)CC2)C4)C(=O)N1 (stereo partly drawn) [E 338, 2-(2,6-dioxopiperidin-3-yl)-6-(4-(((1-(4-((1R,2S)-6-hydroxy-2-phenyl-1,2,3,4-tetrahydronaphthalen-1-yl)phenyl)azetidin-3-yl)amino)methyl)cyclohexyl)-6,7-dihydropyrrolo[3,4-f]isoindole-1,3(2H,5H)-dione] | > 100 nM
2 | O=C1CCC(N2C(=O)c3cc4c(cc3C2=O)CN(C2CCC(NCC3CN(c5ccc([C@@H]6c7ccc(O)cc7CC[C@@H]6c6ccccc6)cc5)C3)CC2)C4)C(=O)N1 (stereo partly drawn) [E 339, 2-(2,6-dioxopiperidin-3-yl)-6-(4-(((1-(4-((1R,2S)-6-hydroxy-2-phenyl-1,2,3,4-tetrahydronaphthalen-1-yl)phenyl)azetidin-3-yl)methyl)amino)cyclohexyl)-6,7-dihydropyrrolo[3,4-f]isoindole-1,3(2H,5H)-dione] | > 100 nM
3 | O=C1CCC(N2C(=O)c3cc4c(cc3C2=O)CN([C@H]2CC[C@@H](NC3CN(c5ccc([C@@H]6c7ccc(O)cc7CC[C@@H]6c6ccccc6)cc5)C3)CC2)C4)C(=O)N1 (stereo partly drawn) [E 340, 2-(2,6-dioxopiperidin-3-yl)-6-((1S,4s)-4-((1-(4-((1R,2S)-6-hydroxy-2-phenyl-1,2,3,4-tetrahydronaphthalen-1-yl)phenyl)azetidin-3-yl)amino)cyclohexyl)-6,7-dihydropyrrolo[3,4-f]isoindole-1,3(2H,5H)-dione] | > 100 nM
4 | O=C1CCC(N2C(=O)c3cc4c(cc3C2=O)CN([C@H]2CC[C@H](NC3CN(c5ccc([C@@H]6c7ccc(O)cc7CC[C@@H]6c6ccccc6)cc5)C3)CC2)C4)C(=O)N1 (stereo partly drawn) [E 341, 2-(2,6-dioxopiperidin-3-yl)-6-((1R,4r)-4-((1-(4-((1R,2S)-6-hydroxy-2-phenyl-1,2,3,4-tetrahydronaphthalen-1-yl)phenyl)azetidin-3-yl)amino)cyclohexyl)-6,7-dihydropyrrolo[3,4-f]isoindole-1,3(2H,5H)-dione] | > 100 nM
5 | O=C1CCC(N2C(=O)c3cc4c(cc3C2=O)CN(Cc2cnc(N3CC(Oc5ccc([C@@H]6c7ccc(O)cc7CC[C@@H]6c6ccccc6)cc5)C3)cn2)C4)C(=O)N1 (stereo partly drawn) [E 342, 2-(2,6-dioxopiperidin-3-yl)-6-((5-(3-(4-((1R,2S)-6-hydroxy-2-phenyl-1,2,3,4-tetrahydronaphthalen-1-yl)phenoxy)azetidin-1-yl)pyrazin-2-yl)methyl)-6,7-dihydropyrrolo[3,4-f]isoindole-1,3(2H,5H)-dione] | > 100 nM
6 | C[C@@H]1Cc2c([nH]c3ccccc23)[C@@H](c2c(F)cc(-c3cnc(C(=O)N4CCC(N5Cc6cc7c(cc6C5)C(=O)N(C5CCC(=O)NC5=O)C7=O)CC4)cn3)cc2F)N1CC(F)F (stereo partly drawn) [E 344, 6-(1-(5-(4-((1R,3R)-2-(2,2-difluoroethyl)-3-methyl-2,3,4,9-tetrahydro-1H-pyrido[3,4-b]indol-1-yl)-3,5-difluorophenyl)pyrazine-2-carbonyl)piperidin-4-yl)-2-(2,6-dioxopiperidin-3-yl)-6,7-dihydropyrrolo[3,4-f]isoindole-1,3(2H,5H)-dione] | > 100 nM
7 | C[C@@H]1Cc2cc(O)ccc2[C@@H](c2ccc(N3CCC(C(=O)N4CC(CN5Cc6cc7c(cc6C5)C(=O)N(C5CCC(=O)NC5=O)C7=O)C4)CC3)cc2F)N1CC(F)F (stereo partly drawn) [E 349, 6-((1-(1-(4-((1S,3R)-2-(2,2-difluoroethyl)-6-hydroxy-3-methyl-1,2,3,4-tetrahydroisoquinolin-1-yl)-3-fluorophenyl)piperidine-4-carbonyl)azetidin-3-yl)methyl)-2-(2,6-dioxopiperidin-3-yl)-6,7-dihydropyrrolo[3,4-f]isoindole-1,3(2H,5H)-dione] | > 100 nM
8 | C[C@@H]1Cc2cc(O)ccc2[C@@H](c2ccc(N3CCC(C(=O)N4CC(CN5Cc6cc7c(cc6C5)C(=O)N(C5CCC(=O)NC5=O)C7=O)C4)CC3)cc2)N1CC(F)F (stereo partly drawn) [E 350, 6-((1-(1-(4-((1R,3R)-2-(2,2-difluoroethyl)-6-hydroxy-3-methyl-1,2,3,4-tetrahydroisoquinolin-1-yl)phenyl)piperidine-4-carbonyl)azetidin-3-yl)methyl)-2-(2,6-dioxopiperidin-3-yl)-6,7-dihydropyrrolo[3,4-f]isoindole-1,3(2H,5H)-dione] | > 100 nM
9 | C[C@@H]1Cc2cc(O)ccc2[C@@H](c2ccc(N3CCC(C(=O)N4CC(CN5Cc6cc7c(cc6C5)C(=O)N(C5CCC(=O)NC5=O)C7=O)C4)CC3)cn2)N1CC(F)F (stereo partly drawn) [E 351, 6-((1-(1-(6-((1S,3R)-2-(2,2-difluoroethyl)-6-hydroxy-3-methyl-1,2,3,4-tetrahydroisoquinolin-1-yl)pyridin-3-yl)piperidine-4-carbonyl)azetidin-3-yl)methyl)-2-(2,6-dioxopiperidin-3-yl)-6,7-dihydropyrrolo[3,4-f]isoindole-1,3(2H,5H)-dione] | > 100 nM

Next, values leading:

Row | DC50 | SMILES
10 | > 100 nM | O=C1CCC(N2C(=O)c3cc4c(cc3C2=O)CN([C@H]2CC[C@H](NC3CCN(c5ccc([C@@H]6c7ccc(O)cc7CC[C@@H]6c6ccccc6)cc5)CC3)CC2)C4)C(=O)N1 (stereo partly drawn) [E 335, 2-(2,6-dioxopiperidin-3-yl)-6-((1R,4r)-4-((1-(4-((1R,2S)-6-hydroxy-2-phenyl-1,2,3,4-tetrahydronaphthalen-1-yl)phenyl)piperidin-4-yl)amino)cyclohexyl)-6,7-dihydropyrrolo[3,4-f]isoindole-1,3(2H,5H)-dione]
11 | > 100 nM | O=C1CCC(N2C(=O)c3cc4c(cc3C2=O)CN(C2CCC(C(=O)NC3CN(c5ccc([C@@H]6c7ccc(O)cc7CC[C@@H]6c6ccccc6)cc5)C3)CC2)C4)C(=O)N1 (some centres unmarked) [E 336]
12 | > 100 nM | O=C1CCC(N2C(=O)c3cc4c(cc3C2=O)CN(CC2CCC(NC3CN(c5ccc([C@@H]6c7ccc(O)cc7CC[C@@H]6c6ccccc6)cc5)C3)CC2)C4)C(=O)N1 (stereo partly drawn) [E 337, 2-(2,6-dioxopiperidin-3-yl)-6-((4-((1-(4-((1R,2S)-6-hydroxy-2-phenyl-1,2,3,4-tetrahydronaphthalen-1-yl)phenyl)azetidin-3-yl)amino)cyclohexyl)methyl)-6,7-dihydropyrrolo[3,4-f]isoindole-1,3(2H,5H)-dione]
13 | < 10 nM | C[C@@H]1Cc2c([nH]c3ccccc23)[C@@H](c2c(F)cc(-c3ccc(C(=O)N4CCC(N5Cc6cc7c(cc6C5)C(=O)N(C5CCC(=O)NC5=O)C7=O)CC4)cn3)cc2F)N1CC(F)F (stereo partly drawn) [E 343, 6-(1-(6-(4-((1R,3R)-2-(2,2-difluoroethyl)-3-methyl-2,3,4,9-tetrahydro-1H-pyrido[3,4-b]indol-1-yl)-3,5-difluorophenyl)nicotinoyl)piperidin-4-yl)-2-(2,6-dioxopiperidin-3-yl)-6,7-dihydropyrrolo[3,4-f]isoindole-1,3(2H,5H)-dione]
14 | 10 to 100 nM | C[C@@H]1Cc2c([nH]c3ccccc23)[C@@H](c2c(F)cc(-c3ccc(C(=O)N4CCC(N5Cc6cc7c(cc6C5)C(=O)N(C5CCC(=O)NC5=O)C7=O)CC4)nn3)cc2F)N1CC(F)F (stereo partly drawn) [E 345, 6-(1-(6-(4-((1R,3R)-2-(2,2-difluoroethyl)-3-methyl-2,3,4,9-tetrahydro-1H-pyrido[3,4-b]indol-1-yl)-3,5-difluorophenyl)pyridazine-3-carbonyl)piperidin-4-yl)-2-(2,6-dioxopiperidin-3-yl)-6,7-dihydropyrrolo[3,4-f]isoindole-1,3(2H,5H)-dione]
15 | < 10 nM | C[C@@H]1Cc2c([nH]c3ccccc23)[C@@H](c2c(F)cc(-c3ncc(C(=O)N4CCC(N5Cc6cc7c(cc6C5)C(=O)N(C5CCC(=O)NC5=O)C7=O)CC4)cn3)cc2F)N1CC(F)F (stereo partly drawn) [E 346, 6-(1-(2-(4-((1R,3R)-2-(2,2-difluoroethyl)-3-methyl-2,3,4,9-tetrahydro-1H-pyrido[3,4-b]indol-1-yl)-3,5-difluorophenyl)pyrimidine-5-carbonyl)piperidin-4-yl)-2-(2,6-dioxopiperidin-3-yl)-6,7-dihydropyrrolo[3,4-f]isoindole-1,3(2H,5H)-dione]
16 | < 10 nM | C[C@@H]1Cc2c([nH]c3ccccc23)[C@@H](c2c(F)cc(-c3ccc(C(=O)N4CCC(N5Cc6cc7c(cc6C5)C(=O)N(C5CCC(=O)NC5=O)C7=O)CC4)cc3)cc2F)N1CC(F)F (stereo partly drawn) [E 347, 6-(1-(4′-((1R,3R)-2-(2,2-difluoroethyl)-3-methyl-2,3,4,9-tetrahydro-1H-pyrido[3,4-b]indol-1-yl)-3′,5′-difluoro-[1,1′-biphenyl]-4-carbonyl)piperidin-4-yl)-2-(2,6-dioxopiperidin-3-yl)-6,7-dihydropyrrolo[3,4-f]isoindole-1,3(2H,5H)-dione]
17 | 10 to 100 nM | C[C@@H]1Cc2c([nH]c3ccccc23)[C@@H](c2c(F)cc(C3CCN(C(=O)C4CCC(N5Cc6cc7c(cc6C5)C(=O)N(C5CCC(=O)NC5=O)C7=O)CC4)CC3)cc2F)N1CC(F)F (stereo partly drawn) [E 348, 6-(4-(4-(4-((1R,3R)-2-(2,2-difluoroethyl)-3-methyl-2,3,4,9-tetrahydro-1H-pyrido[3,4-b]indol-1-yl)-3,5-difluorophenyl)piperidine-1-carbonyl)cyclohexyl)-2-(2,6-dioxopiperidin-3-yl)-6,7-dihydropyrrolo[3,4-f]isoindole-1,3(2H,5H)-dione]

Reference: patent US20240190880A1 (THE REGENTS OF THE UNIVERSITY OF MICHIGAN, priority 2021, published 2024)
